In the oligonucleotide strings, read from the 5' end, every base follows the letter of its sugar. An asterisk marks phosphorothioate; unmarked linkages are phosphodiester. Other units and linkages are bracketed, terminal groups are in braces. A string of capitals states the bases alone. e = 2'-O-(2-methoxyethyl) (MOE); [5mC] = 5-methylcytosine; d = 2'-deoxy (DNA)
Tested on: human apolipoprotein B mRNA
Assay: Inhibition of human apolipoprotein B mRNA levels in HepG2 cells, quantitative real-time PCR
Assay type: cell-based
Details: HepG2 cells; human apolipoprotein B mRNA; oligonucleotides targeting genomic sequence SEQ ID NO 334; averages from two experiments
Outline: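 Apolipoprotein B transcript was quantified by one-step TaqMan RT-PCR, normalized to GAPDH or RiboGreen RNA, and expressed as percent inhibition against an untreated-sample standard curve. HepG2 cells were harvested 16-24 h after oligonucleotide exposure, which was delivered with 3.75 μg/mL Lipofectin over 4-7 h at 80% confluency.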

## 301098 (antisense eA*e[5mC]*eT*eA*eG*dA*dG*dG*dT*dA*dG*d[5mC]*d[5mC]*dA*dG*eA*eA*e[5mC]*eA*e[5mC]) [compound 301098]
  % INHIB: 34%

## 301099 (antisense eA*e[5mC]*e[5mC]*eA*e[5mC]*d[5mC]*dT*dG*dA*d[5mC]*dA*dT*d[5mC]*dA*d[5mC]*eA*eG*eG*eT*eT) [compound 301099]
  % INHIB: 24%

## 301100 (antisense eT*eA*e[5mC]*eT*eG*dT*dG*dA*d[5mC]*d[5mC]*dT*dA*dT*dG*d[5mC]*e[5mC]*eA*eG*eG*eA) [compound 301100]
  % INHIB: 55%

## 301101 (antisense eG*eG*eA*eG*eG*dT*dG*d[5mC]*dT*dA*d[5mC]*dT*dG*dT*dT*eG*eA*e[5mC]*eA*eT) [compound 301101]
  % INHIB: 42%

## 301102 (antisense eT*e[5mC]*e[5mC]*eA*eG*dA*d[5mC]*dT*dT*dG*dT*d[5mC]*dT*dG*dA*eG*eT*e[5mC]*eT*eA) [compound 301102]
  % INHIB: 47%

## 301103 (antisense eT*e[5mC]*eT*eA*eA*dG*dA*dG*dG*dT*dA*dG*dA*dG*d[5mC]*eT*eA*eA*eA*eG) [compound 301103]
  % INHIB: 7%

## 301104 (antisense e[5mC]*e[5mC]*eA*eG*eA*dG*dA*dT*dG*dA*dG*d[5mC]*dA*dA*d[5mC]*eT*eT*eA*eG*eG) [compound 301104]
  % INHIB: 38%

## 301105 (antisense eG*eG*e[5mC]*e[5mC]*eA*dT*dG*dT*dA*dA*dA*dT*dT*dG*d[5mC]*eT*e[5mC]*eA*eT*e[5mC]) [compound 301105]
  % INHIB: 7%

## 301106 (antisense eA*eA*eA*eG*eA*dA*dA*d[5mC]*dT*dA*dT*d[5mC]*d[5mC]*dT*dG*eT*eA*eT*eT*e[5mC]) [compound 301106]
  % INHIB: 12%

## 301107 (antisense eT*eT*e[5mC]*eT*eT*dA*dG*dT*dA*d[5mC]*d[5mC]*dT*dG*dG*dA*eA*eG*eA*eT*eG) [compound 301107]
  % INHIB: 23%

## 301108 (antisense e[5mC]*eA*eT*eT*eA*dG*dA*dT*dA*d[5mC]*d[5mC]*dT*dG*dG*dA*e[5mC]*eA*e[5mC]*e[5mC]*eT) [compound 301108]
  % INHIB: 29%

## 301109 (antisense eG*eT*eT*eT*e[5mC]*dA*dT*dG*dG*dA*dA*d[5mC]*dT*d[5mC]*dA*eG*e[5mC]*eG*e[5mC]*eA) [compound 301109]
  % INHIB: 44%

## 301110 (antisense e[5mC]*eT*eG*eG*eA*dG*dA*dG*d[5mC]*dA*d[5mC]*d[5mC]*dT*dG*d[5mC]*eA*eA*eT*eA*eG) [compound 301110]
  % INHIB: 35%

## 301111 (antisense eT*eG*eA*eA*eG*dG*dG*dT*dA*dG*dA*dG*dA*dA*dA*eT*e[5mC]*eA*eT*eA) [compound 301111]
  % INHIB: 9%

## 301112 (antisense eG*eG*eA*eA*eA*d[5mC]*dT*d[5mC]*dA*d[5mC]*dT*dT*dG*dT*dT*eG*eA*e[5mC]*e[5mC]*eG) [compound 301112]
  % INHIB: 25%

## 301113 (antisense eA*eG*eG*eT*eG*d[5mC]*dA*dA*dG*dA*dT*dG*dT*dT*d[5mC]*e[5mC]*eT*e[5mC]*eT*eG) [compound 301113]
  % INHIB: 46%

## 301114 (antisense eT*eG*e[5mC]*eA*e[5mC]*dA*dG*dA*dG*dG*dT*dG*d[5mC]*dA*dA*eG*eA*eT*eG*eT) [compound 301114]
  % INHIB: 16%

## 301115 (antisense e[5mC]*eA*e[5mC]*eA*eA*dG*dA*dG*dT*dA*dA*dG*dG*dA*dG*e[5mC]*eA*eG*eA*eG) [compound 301115]
  % INHIB: 39%

## 301116 (antisense eG*eA*eT*eG*eG*dA*dT*dG*dG*dT*dG*dA*dG*dA*dA*eA*eT*eT*eA*e[5mC]) [compound 301116]
  % INHIB: 33%

## 301117 (antisense eT*eA*eG*eA*e[5mC]*dA*dA*dT*dT*dG*dA*dG*dA*d[5mC]*dT*e[5mC]*eA*eG*eA*eA) [compound 301117]
  % INHIB: 39%

## 301118 (antisense eA*eT*eG*eT*eG*d[5mC]*dA*d[5mC]*dA*d[5mC]*dA*dA*dG*dG*dA*e[5mC]*eA*eT*eA*eG) [compound 301118]
  % INHIB: 33%

## 301119 (antisense eA*e[5mC]*eA*eT*eA*d[5mC]*dA*dA*dA*dT*dG*dG*d[5mC]*dA*dA*eT*eA*eG*eG*e[5mC]) [compound 301119]
  % INHIB: 33%

## 301120 (antisense eT*eA*eG*eG*e[5mC]*dA*dA*dA*dG*dG*dA*d[5mC]*dA*dT*dG*eA*eA*eT*eA*eG) [compound 301120]
  % INHIB: 30%

## 301121 (antisense eT*eT*eA*eT*eG*dA*dT*dA*dG*d[5mC]*dT*dA*d[5mC]*dA*dG*eA*eA*eT*eA*eA) [compound 301121]
  % INHIB: 29%

## 301122 (e[5mC]*eT*eG*eA*eG*dA*dT*dT*dA*d[5mC]*d[5mC]*d[5mC]*dG*d[5mC]*dA*eG*eA*eA*eT*e[5mC]; antisense) [compound 301122]
  % INHIB: 32%

## 301123 (eG*eA*eT*eG*eT*dA*dT*dG*dT*d[5mC]*dA*dT*dA*dT*dA*eA*eA*eA*eG*eA; antisense) [compound 301123]
  % INHIB: 26%

## 301124 (eT*eT*eT*e[5mC]*e[5mC]*dA*dA*dT*dG*dA*d[5mC]*d[5mC]*dT*dG*d[5mC]*eA*eT*eT*eG*eA; antisense) [compound 301124]
  % INHIB: 48%

## 301125 (eA*eG*eG*eG*eA*dT*dG*dG*dT*d[5mC]*dA*dA*dT*d[5mC]*dT*eG*eG*eT*eA*eG; antisense) [compound 301125]
  % INHIB: 57%

## 301126 (eG*eG*e[5mC]*eT*eA*dA*dT*dA*dA*dA*dT*dA*dG*dG*dG*eT*eA*eG*eT*eT; antisense) [compound 301126]
  % INHIB: 22%

## 301127 (eT*e[5mC]*e[5mC]*eT*eA*dG*dA*dG*d[5mC]*dA*d[5mC]*dT*dA*dT*d[5mC]*eA*eA*eG*eT*eA; antisense) [compound 301127]
  % INHIB: 41%

## 301128 (e[5mC]*e[5mC]*eT*e[5mC]*e[5mC]*dT*dG*dG*dT*d[5mC]*d[5mC]*dT*dG*d[5mC]*dA*eG*eT*e[5mC]*eA*eA; antisense) [compound 301128]
  % INHIB: 56%

## 301129 (e[5mC]*eA*eT*eT*eT*dG*d[5mC]*dA*d[5mC]*dA*dA*dG*dT*dG*dT*eT*eT*eG*eT*eT; antisense) [compound 301129]
  % INHIB: 35%

## 301130 (e[5mC]*eT*eG*eA*e[5mC]*dA*d[5mC]*dA*d[5mC]*d[5mC]*dA*dT*dG*dT*dT*eA*eT*eT*eA*eT; antisense) [compound 301130]
  % INHIB: 10%

## 301131 (e[5mC]*eT*eT*eT*eT*dT*d[5mC]*dA*dG*dA*d[5mC]*dT*dA*dG*dA*eT*eA*eA*eG*eA; antisense) [compound 301131]
  % INHIB: 0%

## 301132 (eT*e[5mC]*eA*e[5mC]*eA*d[5mC]*dT*dT*dA*d[5mC]*d[5mC]*dT*d[5mC]*dG*dA*eT*eG*eA*eG*eG; antisense) [compound 301132]
  % INHIB: 29%

## 301133 (eA*eA*eG*eA*eA*dA*dA*dT*dG*dG*d[5mC]*dA*dT*d[5mC]*dA*eG*eG*eT*eT*eT; antisense) [compound 301133]
  % INHIB: 13%

## 301134 (e[5mC]*e[5mC]*eA*eA*eG*d[5mC]*d[5mC]*dA*dA*dT*d[5mC]*dT*dG*dA*dG*eA*eA*eA*eG*eA; antisense) [compound 301134]
  % INHIB: 25%

## 301135 (eA*eA*eA*eT*eA*d[5mC]*dA*d[5mC]*dA*d[5mC]*d[5mC]*dT*dG*d[5mC]*dT*e[5mC]*eA*eT*eG*eT; antisense) [compound 301135]
  % INHIB: 20%

## 301136 (e[5mC]*eT*eT*e[5mC]*eA*d[5mC]*dA*dA*dA*dT*dA*d[5mC]*dA*d[5mC]*dA*e[5mC]*e[5mC]*eT*eG*e[5mC]; antisense) [compound 301136]
  % INHIB: 20%

## 301137 (eA*eG*eT*eG*eG*dA*dA*dG*dT*dT*dT*dG*dG*dT*d[5mC]*eT*e[5mC]*eA*eT*eT; antisense) [compound 301137]
  % INHIB: 41%

## 301138 (eT*eT*eG*e[5mC]*eT*dA*dG*d[5mC]*dT*dT*d[5mC]*dA*dA*dA*dG*eT*eG*eG*eA*eA; antisense) [compound 301138]
  % INHIB: 44%

## 301139 (eT*e[5mC]*eA*eA*eG*dA*dA*dT*dA*dA*dG*d[5mC]*dT*d[5mC]*d[5mC]*eA*eG*eA*eT*e[5mC]; antisense) [compound 301139]
  % INHIB: 41%

## 301140 (eG*e[5mC]*eA*eT*eA*d[5mC]*dA*dA*dG*dT*d[5mC]*dA*d[5mC]*dA*dT*eG*eA*eG*eG*eT; antisense) [compound 301140]
  % INHIB: 34%

## 301141 (eT*eA*e[5mC]*eA*eA*dG*dG*dT*dG*dT*dT*dT*d[5mC]*dT*dT*eA*eA*eG*eA*eA; antisense) [compound 301141]
  % INHIB: 38%

## 301142 (eA*eT*eG*e[5mC]*eA*dG*d[5mC]*d[5mC]*dA*dG*dG*dA*dT*dG*dG*eG*e[5mC]*e[5mC]*eT*eA; antisense) [compound 301142]
  % INHIB: 54%

## 301143 (eT*eT*eA*e[5mC]*e[5mC]*dA*dT*dA*dT*d[5mC]*d[5mC]*dT*dG*dA*dG*eA*eG*eT*eT*eT; antisense) [compound 301143]
  % INHIB: 55%

## 301144 (eG*e[5mC]*eA*eA*eA*dG*dG*dT*dA*dG*dA*dG*dG*dA*dA*eG*eG*eT*eA*eT; antisense) [compound 301144]
  % INHIB: 32%

## 301145 (eA*eA*eG*eG*eA*d[5mC]*d[5mC]*dT*dT*d[5mC]*dA*dG*d[5mC]*dA*dA*eA*eG*eG*eT*eA; antisense) [compound 301145]
  % INHIB: 36%

## 301146 (e[5mC]*eA*eT*eA*eG*dG*dA*dG*dT*dA*d[5mC]*dA*dT*dT*dT*eA*eT*eA*eT*eA; antisense) [compound 301146]
  % INHIB: 23%

## 301147 (eA*eT*eT*eA*eT*dG*dA*dT*dA*dA*dA*dA*dT*d[5mC]*dA*eA*eT*eT*eT*eT; antisense) [compound 301147]
  % INHIB: 19%

## 301148 (eA*eG*eA*eA*eA*dT*dT*dT*d[5mC]*dA*d[5mC]*dT*dA*dG*dA*eT*eA*eG*eA*eT; antisense) [compound 301148]
  % INHIB: 31%
